Experimental data published in patent publication US11805773B1, “Nanocomposite including water-soluble nano-polymer and mesoporous silica nanoparticles encapsulated with azole derivatives” (KING FAISAL UNIVERSITY, priority 2023, dated 2023).

Row | SMILES | melting point [°C]
1 | COc1ccc(C2CC(c3ccc(Cl)cc3Cl)=NN2c2nc(-c3ccccc3)cs2)cc1OC (stereo not shown) [1a, 2-(3-(2,4-dichlorophenyl)-5-(3,4-dimethoxyphenyl)-4,5-dihydro-1H-pyrazol-1-yl)-4-phenylthiazole] | 120 to 122
2 | COc1ccc(C2CC(c3ccc(Cl)cc3Cl)=NN2c2nc(-c3ccc(Cl)cc3)cs2)cc1OC (stereo not shown) [1b, 4-(4-chlorophenyl)-2-(3-(2,4-dichlorophenyl)-5-(3,4-dimethoxyphenyl)-4,5-dihydro-1H-pyrazol-1-yl)thiazole] | 158 to 159
3 | COc1ccc(C2CC(c3ccc(Cl)cc3Cl)=NN2c2nc(-c3ccccc3)cs2)cc1 (stereo not shown) [1c, 2-(3-(2,4-dichlorophenyl)-5-(4-methoxyphenyl)-4,5-dihydro-1H-pyrazol-1-yl)-4-phenylthiazole] | 72 to 75
4 | COc1ccc(C2CC(c3ccc(Cl)cc3Cl)=NN2c2nc(-c3ccc(Cl)cc3)cs2)cc1 (stereo not shown) [1d, 4-(4-chlorophenyl)-2-(3-(2,4-dichlorophenyl)-5-(4-methoxyphenyl)-4,5-dihydro-1H-pyrazol-1-yl)thiazole] | 140 to 141
